Measurements published in patent US10087465B2, “Trans-acting elements for intracellular delivery of nucleic acid sequences” (The United States of America, as Represented by the …, priority 2014, dated 2018).
“Also recorded” adds a separate entry of the source. {F1} = fluorescein label

Legend:
Format in all cases: cell-based
HeLa pLuc 705 cells [1] = test: Confocal microscopy analysis of dTtaPS-assisted internalization of PNA or PMO oligomers; details: dTtaPS-assisted uptake; oligomer 1.0, dTtaPS 2.0 μM; 12 h at 37° C.
Experimental: Confocal microscopy analysis of dTtaPS-assisted internalization of PNA or PMO oligomers in HeLa pLuc 705 cells: HeLa pLuc 705 cells (5×10^4 cells/well) were seeded in 8-well chambered slides and cultured for 24 h at 37° C. in 10% FBS-MEM (200 μl). The culture medium of each well was then replaced with 20% FBS containing fresh medium (200 μl) and the fluoresceinated PNA or PMO oligomer:dTtaPS complex that was prepared as described above to provide an oligomer and dTtaPS final concentration of […] and 2.0 μM, respectively. After a 12 h incubation at 37° C., the medium was removed and a 0.4% Trypan Blue solution (200 μl) was added to quench the fluorescence stemming from extracellular fluoresceinated oligonucleotides. After a period of 5 minutes at ambient temperature, the cells were washed twice with PBS (pH 7.4, 200 μl) followed by the addition of fresh phenol red-free DMEM (200 μl) supplemented with 10% FBS. The intracellular distribution of fluorescence was determined without fixation using a Leica SP8 confocal microscope system and analysed using the Leica LASAF software. Hoechst 33342 was used, in accordance with the manufacturer's staining protocols, for the detection of nuclei. Images were acquired at a 63× magnification.

[2] = test system: HEK 293, HeLa, HeLa pLuc705, MCF7 and SK—N—SH live cells; test: Flow cytometry (FACS) analysis of cellular uptake of fluorescently-labeled PNA or PMO oligomers in live cells
Experimental: (§1) Complex formation between PNA or PMO oligomers and dTtaPS or dAtaPS: Appropriate amounts of PNA or PMO oligomers were diluted in serum-free OptiMEM™ (20 μl). dTtaPS or dAtaPS was added to the oligomer solution to achieve a final concentration that is twice that of the oligomer. After 30 min incubation at 37° C., the PNA or PMO oligomer: dTtaPS or dAtaPS complexes were stored at 4° C. for 15 minutes or until used. Stock solutions (2×) of the complexes were made by adding OptiMEM™ to appropriate volumes.
Flow cytometry analysis of cellular uptake in live cells: The internalization of fluorescently-labeled PNA or PMO sequences (Table 1) in HEK 293, HeLa, MCF7 and SK—N—SH cells was assessed by flow cytometry. Cells were seeded in a 96-well plate (10^4 cells/well) and allowed to grow at 37° C. for 24 h in 10% FBS-MEM. The culture medium of each well was then replaced with fresh medium (100 μl) containing any of the fluorescently-labeled PNA or PMO sequences, the final concentration of which was 1 μM. After an incubation of 18 h at 37° C., the medium was removed from each well by suction and 0.25% Trypsin (50 μl) was added. Upon complete cell detachment, a solution (100 μl) of ice-cold 2% FBS in phosphate-buffered saline (PBS, pH 7.4) was added to each well. The cells were collected into tubes, to which was added 0.4% Trypan blue (50 μl) and 200 µM monensin (20 μl), and analyzed by fluorescence-activated cell sorting (FACS) using a BD FACScan™ flow cytometer. A total of 5000 events were counted and the results were reported as a percentage of the cells that have internalized the fluorescently-labeled oligomers.

HeLa pLuc705 cells [3] = test: Luciferase splice correction assay; details: for luciferase activity / internalization of the oligomer in the absence of PS-dT8[3+] (dTtaPS): no transfection element
Experimental: The efficiency of PS-dT8[3+] in the cellular uptake of polyA-tailed PNA oligomers was assessed through the luciferase splice correction assay in which the mutated intron 2 of the human β-globin gene has been inserted within the coding sequence of a luciferase reporter gene (pLuc705). The activation of a cryptic splice site in this intron leads to a defective luciferase enzyme. In the presence of a PNA oligomer complementary to the aberrant splice site, correct splicing is restored and results in an active luciferase. A concentration-dependence of splice correction activity by PS-dT8[3+]-mediated internalization of the PNA oligomer 10 in HeLa pLuc705 cells is shown in FIG. 12.
as §1
Luciferase assay protocol: HeLa pLuc 705 cells were seeded in a 96-well plate (2×10^4 cells/well) and allowed to grow at 37° C. for 18 h in 10% FBS-DMEM. The culture medium of each well was then replaced with either fresh serum-free or 20% serum-containing OptiMEM™ (50 μl) for experiments intended to be performed in serum-free or in 10% serum-containing media. A 2× solution of PNA or PMO oligomer:dTtaPS or dAtaPS complexes (50 μl) was added to the cells in order to achieve pre-determined complex concentrations, as indicated in the Figures. After a 4-hour incubation at 37° C., 20% FBS in OptiMEM™ (100 μl was added to serum-free experiments and cells were incubated for an additional 18 h at 37° C. The media was then removed by suction and the cells were mixed with a cell lysis reagent (50 μl) and agitated at ambient temperature for 10 minutes. The cell lysate (30 μl) was placed in a white 96-well plate and Bright-Glo™ reagent (20 μl) was added. Luciferase activity was measured using a microplate reader. For each well, luminescence was integrated over a period of 1 sec and recorded as relative light units (RLU). Luminescence measurements were normalized to the amount of protein present in the test sample.
Appropriate amounts of PNA/PMO oligomers were diluted in OptiMEM™ (20 μL) to achieve the concentration of 1 μM or as indicated in the Figures. PS-dT8[3+] or PS-dAs[3+] was added to the above oligomer solutions. After a 30 min incubation at 37° C., the PNA/PMO oligomer:PS-dT8[3+] or PS-dA8[3+] complexes were removed and kept at 4° C. for 15 minutes or until used. Stock solutions of the complexes were made by adding OptiMEM™ to appropriate volumes.
Luciferase Assay: Prior to performing experiments, HeLa pLuc 705 cells were seeded in a 96-well plate (2×10^4 cells/well) and allowed to grow at 37° C. for 18 h in 10% FBS DMEM. The culture medium of each well was then replaced with either fresh 50 μL serum free or 20% serum-containing OptiMEM™ for experiments intended to be performed in serum free or in 10% serum-containing media. A 2× solution of the PNA/PMO oligomer:PS-dT8[3+] or PS-dAs[3+] complexes (50 μL) was added to the cells in order to achieve a pre-determined concentration as indicated in the figures. After a 4-hour incubation at 37° C., 20% FBS in OptiMEM (100 μL) was added to serum free experiments and cells were incubated for an additional 18 h at 37° C. The media was then removed by suction and the cells were mixed with a cell lysis reagent (50 μL) and agitated at ambient temperature over a period of 10 minutes. The cell lysate (30 μL) was placed in white 96-well plate and Bright-Glow™ reagent (20 μL) was added. Luciferase activity was measured using a microplate reader. […]

HeLa pLuc705 cells [4] = test: Cytotoxicity study with commercial cell-counting kit (CCK-8); details: oligomer 1.0 μM, dTtaPS 2.0 μM; 18 h; compared to medium or absence of dTtaPS
Experimental: Flat-bottom 96-well plates were purchased from BD-Falcon. The CCK-8 Kit for cytotoxicity studies was purchased from Dojindo Molecular Technologies.
The cytotoxicity of PNA oligomer 10:dTtaPS and PMO oligomer 21:dTtaPS complexes in HeLa pLuc 705 cells was evaluated over a period of 18 h using a commercial cell-counting kit.

HeLa pLuc 705 cells [5] = test: Energy-dependence of the dTtaPS-assisted internalization of PNA oligomer 10; details: dTtaPS-mediated uptake; incubation of 1 h
Experimental: Energy-dependence of the dTtaPS-assisted internalization of PNA oligomer 10 in HeLa pLuc 705 cells: HeLa pLuc 705 cells were seeded in a 96-well plate (2×10^4 cells/well) and allowed to grow at 37° C. for 18 h in 10% FBS-DMEM. While the cell culture was maintained at 37° C. or 4° C., a 2× solution of a PNA oligomer 10:dTtaPS complex was prepared as described above. The cell culture medium was replaced with the PNA oligomer:dTtaPS complex solution to provide an oligomer and dTtaPS final concentration of […], respectively. After an incubation of 1 h at 37° C. or 4° C., the medium was removed by suction and luciferase activity was measured as described above in the Luciferase assay protocol. Luminescence measurements were normalized to the amounts of protein present in the test samples and reported as percent luminescence remaining relative to that of the experiment performed at 37° C.

HeLa pLuc 705 cells [6] = test: Competition assay with PS-dT8 (luciferase readout); details: PNA oligomer 10 1.0 μM, dTtaPS 1.0 μM, PS-dT8 1.0, 2.0 or 4.0 μM
Experimental: Competition assay: HeLa pLuc 705 cells were seeded in a 96-well plate and grown in 10% FBS-DMEM as described above. Predetermined amounts of polyA-tailed PNA oligomer 10 and octathymidilyl DNA phosphorothioate (PS-dT8) were placed in individual microfuge tubes so that the molar ratio of PNA:PS-dT8 in each tube was 1:1, 1:2 or 1:4. OptiMEM™ (20 μl) was added to each of the three tubes, which were then placed in a heating block pre-heated to 60° C. After 2 min, the tubes were removed from the heating block, allowed to cool slowly to 20° C., and then, left standing in a cold room (4° C.) for 15 min. dTtaPS was added to the mixture of oligomers of each tube to achieve a concentration that is equimolar to that of the PNA oligomer 10. After a 30 min incubation at 37° C., the PNA/PS-dT8:dTtaPS complexes were stored at 4° C. for 15 minutes or until used. […] The cells were then incubated for an additional 30 min at 37° C., whereupon luciferase activity was measured as described above in the Luciferase assay protocol. Luminescence measurements were normalized to the amounts of protein present in the test samples and reported as percent luminescence remaining relative to that of the experiment performed in the absence of PS-dT8.

PMO oligomer 18: commercial PMO, CCTCTTACCTCAGTTACA-AAAAAA-F1, SEQ ID NO. 12 (CCTCTTACCTCAGTTACAAAAAAA; all phosphorodiamidate morpholino (PMO), 3' {F1})
intracellular distribution of fluorescence (HeLa pLuc 705 cells [1]): endosomal sequestration of 18 and modest nuclear fluorescence
PS-dT8[3+] (dTtaPS)-mediated delivery of fluoresceinated PMO oligomers ([2]; PMO oligomer 1 μM, PS-dT8[3+] 2 μM, all cell lines, FIG. 17, listed as 18): confirmed the dTtaPS-assisted delivery

PMO oligomer 21: commercial PMO, CCTCTTACCTCAGTTACA-AAAAAA, SEQ ID NO. 15 (CCTCTTACCTCAGTTACAAAAAAA; all phosphorodiamidate morpholino (PMO))
luciferase activity / internalization of the oligomer in the absence of PS-dT8[3+] (dTtaPS) (HeLa pLuc705 cells [3]; listed as 21): reduced to that of the negative control oligomer 22
cytotoxicity of oligomer:dTtaPS complexes (HeLa pLuc705 cells [4]): did not induce significant cytotoxicity

PNA oligomer 7: commercial PNA, F1-CCTCTTACCTCAGTTACA-AAAAAA-NH2, SEQ ID NO. 1 (CCTCTTACCTCAGTTACAAAAAAA; all peptide nucleic acid (PNA), 5' {F1}; PNA with C-terminal amide, further chemistry not fully specified)
intracellular distribution of fluorescence (HeLa pLuc 705 cells [1]): endosomal sequestration of 7 is predominant
mean fluorescence intensity (MFI) after internalization, relative to that of PMO oligomer 18 ([2]; dTtaPS-mediated uptake, FACS analysis): ~10 fold
PS-dT8[3+] (dTtaPS)-mediated cellular internalization of fluoresceinated PNA oligomers ([2]; in the presence of PS-dT8[3+], oligomer 1 μM, all cell lines under study, FIG. 11): efficiently internalized

PNA oligomer 10: commercial PNA, H-CCTCTTACCTCAGTTACA-AAAAAA-NH2, SEQ ID NO. 4 (CCTCTTACCTCAGTTACAAAAAAA; all peptide nucleic acid (PNA); PNA with C-terminal amide)
luciferase activity / internalization upon PS-dA8[3+] (dAtaPS)-mediated delivery of PNA oligomers (HeLa pLuc705 cells [3]; PS-dA8[3+] 2.0 μM, compared with PS-dT8[3+]:10 complex, FIG. 16, listed as 10): No significant level of luciferase activity was detected; also recorded: Poor luciferase activity
luciferase activity (splice correction) upon PS-dT8[3+] (dTtaPS)-assisted delivery of PNA oligomers (HeLa pLuc705 cells [3]; PS-dT8[3+] 2 μM, FIG. 12, 13, 15, listed as 10): induced splice correction of the pre-mRNA encoding luciferase, in a dose-dependent manner
luciferase activity / internalization of the oligomer in the absence of PS-dT8[3+] (dTtaPS) (HeLa pLuc705 cells [3]): no luciferase activity was detected
cytotoxicity of oligomer:dTtaPS complexes (HeLa pLuc705 cells [4]): did not induce significant cytotoxicity
decrease of luciferase activity production at 4° C. relative to 37° C. (HeLa pLuc 705 cells [5]): at least 50%

octathymidilyl DNA phosphorothioate [PS-dT8]
decrease of luciferase activity production relative to control without PS-dT8 (HeLa pLuc 705 cells [6]): ≤ 80%
